Source: patent US10765114B2, “4-amino-6-(pyridyl and 2-substitutedphenyl)-picolinates and 6-amino-2-(pyridyl and 2-substitutedphenyl)-pyrimidine-4-carboxylates and their use as herbicides” (Dow AgroSciences LLC, priority 2013, dated 2020)
Where two headings read alike, the source gives them in different places.

Experiments:
[1] = test system: Key Broadleaf Weed and Crop Species; test: Post-Emergent Test II (Table 5); format: in vivo; details: post-emergence, 336 h; for pest or weed control at 70 g/ha: application rate 70 (kg ai/ha; footnote: g ai/ha); for pest or weed control at 140 g/ha: application rate 140 (kg ai/ha; footnote: g ai/ha)
Outline: (§1)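 Post-emergence greenhouse spray, 1st-2nd true leaf stage; track sprayer, 187 L/ha; acetone/DMSO stock diluted in aqueous acetone/IPA/DMSO with Atplus 411F and Triton X-155; rates 1× to 1/16×; subirrigated; visual injury 0 (none) to 100% (complete kill) at 14 days.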

[2] = test system: Key Grass and Sedge Weeds as well as Grass Crops; test: Post-Emergent Test II (Table 6); format: in vivo; details: post-emergence, 336 h, 14 days after application; for pest or weed control at 70 g/ha: 70 g ai/ha; for pest or weed control at 140 g/ha: 140 g ai/ha
Outline: as §1

[3] = Abutilon theophrasti, ABUTH: velvetleaf (Abutilon theophrasti), read-out: Visual Growth Reduction (%) 14 Days After Application ABUTH
[4] = Amaranthus retroflexus, AMARE: redroot pigweed (Amaranthus retroflexus), read-out: Visual Growth Reduction (%) 14 Days After Application AMARE
[5] = Brassica napus, BRSSS: oilseed rape, canola (Brassica napus), read-out: Visual Growth Reduction (%) 14 Days After Application BRSSS
[6] = Chenopodium album, CHEAL: lambsquarters (Chenopodium album), read-out: Visual Growth Reduction (%) 14 Days After Application CHEAL
[7] = Euphorbia heterophylla, EPHHL: wild poinsettia (Euphorbia heterophylla), read-out: Visual Growth Reduction (%) 14 Days After Application EPHHL
[8] = Helianthus annuus, HELAN: sunflower (Helianthus annuus), read-out: Visual Growth Reduction (%) 14 Days After Application HELAN
[9] = Viola tricolor, VIOTR: wild pansy (Viola tricolor), read-out: Visual Growth Reduction (%) 14 Days After Application VIOTR
[10] = CYPSS, read-out: Visual Growth Reduction (%) 14 Days After Application CYPSS
[11] = DIGSA: crabgrass (Digitaria sanguinalis), read-out: Visual Growth Reduction (%) 14 Days After Application DIGSA
[12] = ORYSS (crop), read-out: Visual Growth Reduction (%) 14 Days After Application ORYSS
[13] = SETFA: giant foxtail (Setaria faberi), read-out: Visual Growth Reduction (%) 14 Days After Application SETFA
[14] = SORVU: grain sorghum (Sorghum vulgare), read-out: Visual Growth Reduction (%) 14 Days After Application SORVU
[15] = TRZSS (crop), read-out: Visual Growth Reduction (%) 14 Days After Application TRZSS
[16] = ZEAMX: maize, corn (Zea mays), read-out: Visual Growth Reduction (%) 14 Days After Application ZEAMX
[17] = ECHSS, read-out: Visual Growth Reduction (%) 14 Days After Application ECHSS

Compound	pest or weed control at 70 g/ha [1, 3]	pest or weed control at 140 g/ha [1, 3]	pest or weed control at 70 g/ha [1, 4]	pest or weed control at 140 g/ha [1, 4]	pest or weed control at 70 g/ha [1, 5]	pest or weed control at 140 g/ha [1, 5]	pest or weed control at 70 g/ha [1, 6]	pest or weed control at 140 g/ha [1, 6]	pest or weed control at 70 g/ha [1, 7]	pest or weed control at 140 g/ha [1, 7]	pest or weed control at 70 g/ha [1, 8]	pest or weed control at 140 g/ha [1, 8]	pest or weed control at 70 g/ha [1, 9]	pest or weed control at 140 g/ha [1, 9]	pest or weed control at 70 g/ha [2, 10]	pest or weed control at 140 g/ha [2, 10]	pest or weed control at 70 g/ha [2, 11]	pest or weed control at 140 g/ha [2, 11]	pest or weed control at 70 g/ha [2, 12]	pest or weed control at 140 g/ha [2, 12]	further results
COC(=O)c1nc(-c2ccc(C(F)(F)F)nc2OC)c(F)c(N)c1Cl [Compound 44, methyl 4-amino-5-chloro-3-fluoro-2′-methoxy-6′-(trifluoromethyl)-2,3′-bipyridine-6-carboxylate]	45 to 59%	75 to 84%	0 to 29%	95 to 100%	45 to 59%	60 to 74%	85 to 94%	85 to 94%	0 to 29%	0 to 29%	85 to 94%	85 to 94%	0 to 29%	0 to 29%	0 to 29%	0 to 29%	0 to 29%	0 to 29%	0 to 29%	0 to 29%	pest or weed control at 70 g/ha [2, 13]: 0 to 29%; pest or weed control at 140 g/ha [2, 13]: 0 to 29%; pest or weed control at 70 g/ha [2, 14]: 0 to 29%; pest or weed control at 140 g/ha [2, 14]: 0 to 29%; pest or weed control at 70 g/ha [2, 15]: 0 to 29%; pest or weed control at 140 g/ha [2, 15]: 0 to 29%; pest or weed control at 70 g/ha [2, 16]: 0 to 29%; pest or weed control at 140 g/ha [2, 16]: 0 to 29%
Nc1cc(-c2ccc(Cl)c(F)c2CO)nc(C(=O)O)c1Cl [Compound 11, 4-Amino-3-chloro-6-(4-chloro-3-fluoro-2-(hydroxymethyl)phenyl)picolinic acid]	0 to 29%	0 to 29%	0 to 29%	0 to 29%	0 to 29%	0 to 29%	0 to 29%	75 to 84%	0 to 29%	0 to 29%	0 to 29%	0 to 29%	0 to 29%	0 to 29%	0 to 29%	0 to 29%	0 to 29%	0 to 29%	0 to 29%	0 to 29%	pest or weed control at 70 g/ha [2, 17]: 0 to 29%; pest or weed control at 140 g/ha [2, 17]: 0 to 29%; pest or weed control at 70 g/ha [2, 13]: 0 to 29%; pest or weed control at 140 g/ha [2, 13]: 0 to 29%; pest or weed control at 70 g/ha [2, 14]: 0 to 29%; pest or weed control at 140 g/ha [2, 14]: 0 to 29%; pest or weed control at 70 g/ha [2, 15]: 0 to 29%; pest or weed control at 140 g/ha [2, 15]: 0 to 29%; pest or weed control at 70 g/ha [2, 16]: 0 to 29%; pest or weed control at 140 g/ha [2, 16]: 0 to 29%
COC(=O)c1nc(-c2ccc(Cl)c(F)c2C)nc(N)c1OC [Compound 63]	0 to 29%	0 to 29%	85 to 94%	85 to 94%	30 to 44%	45 to 59%	85 to 94%	85 to 94%	0 to 29%	0 to 29%	75 to 84%	75 to 84%	0 to 29%	0 to 29%	0 to 29%	0 to 29%	0 to 29%	0 to 29%	0 to 29%	0 to 29%	pest or weed control at 70 g/ha [2, 17]: 0 to 29%; pest or weed control at 140 g/ha [2, 17]: 0 to 29%; pest or weed control at 70 g/ha [2, 13]: 0 to 29%; pest or weed control at 140 g/ha [2, 13]: 0 to 29%; pest or weed control at 70 g/ha [2, 14]: 0 to 29%; pest or weed control at 140 g/ha [2, 14]: 0 to 29%; pest or weed control at 70 g/ha [2, 15]: 0 to 29%; pest or weed control at 140 g/ha [2, 15]: 0 to 29%; pest or weed control at 70 g/ha [2, 16]: 0 to 29%; pest or weed control at 140 g/ha [2, 16]: 0 to 29%
